From patent US20100130621A1, “USE OF HYDROXYTYROSOL AS ANTI-AGING AGENT” (DSM IP ASSETS B.V., priority 2007, published 2010)

Key:
[1] = test system: skeletal muscle; details: oral administration of 1 g per day; cited from earlier work
[2] = test system: PGC-1α; assay: Western blot analysis of PGC-1α protein level in adipocytes; format: cell-based, murine; details: 3T3-L1 adipocytes, 1.0 μM; bell-shape effect from 0.1 to 10.0 μM; mean±SE
Description: Murine 3T3-L1 pre-adipocytes (American Type Culture Collection) were cultured in Dulbecco's Modified Eagle's Medium (DMEM) supplemented with 10% fetal bovine serum and allowed to reach confluence. Differentiation of pre-adipocytes was initiated with 1 μM insulin, 0.25 μM dexamethasone and 0.5 mM 3-isobutyl-1-methylxanthine in DMEM, supplemented with 10% fetal bovine serum. After 48 h, the culture medium was replaced with DMEM supplemented with 10% fetal bovine serum and 1 μM insulin. The culture medium was changed every other day with DMEM containing 10% fetal bovine serum. […] After treatment, cells were washed twice with ice-cold PBS, lysed in sample buffer (62.5 mM Tris-Cl pH 6.8, 2% SDS, 5 mM DTT) at room temperature and vortexed. Cell lysates were then boiled for 5 minutes and cleared by centrifugation (13,000 rpm, 10 minutes at 4° C.). Protein concentration was determined using the Bio-Rad DC protein assay. The soluble lysates (10 μg per lane) were subjected to 10% SDS-PAGE, proteins were then transferred to nitrocellulose membranes and blocked with 5% non-fat milk/TBST for 1 h at room temperature. […] Western blots were developed using ECL (Roche Manheim, Germany) and quantified by scanning densitometry.

[3] = test system: mitochondrial electron transport complex I; assay: Western blot of mitochondrial electron transport complex I protein in adipocytes; format: cell-based, murine; details: 3T3-L1 adipocytes, 48 hrs
Description: Murine 3T3-L1 pre-adipocytes (American Type Culture Collection) were cultured in Dulbecco's Modified Eagle's Medium (DMEM) supplemented with 10% fetal bovine serum and allowed to reach confluence. Differentiation of pre-adipocytes was initiated with 1 μM insulin, 0.25 μM dexamethasone and 0.5 mM 3-isobutyl-1-methylxanthine in DMEM, supplemented with 10% fetal bovine serum. After 48 h, the culture medium was replaced with DMEM supplemented with 10% fetal bovine serum and 1 μM insulin. The culture medium was changed every other day with DMEM containing 10% fetal bovine serum. […] After treatment, cells were washed twice with ice-cold PBS, lysed in sample buffer (62.5 mM Tris-Cl pH 6.8, 2% SDS, 5 mM DTT) at room temperature and vortexed. Cell lysates were then boiled for 5 minutes and cleared by centrifugation (13,000 rpm, 10 minutes at 4° C.). Protein concentration was determined using the Bio-Rad DC protein assay. The soluble lysates (10 μg per lane) were subjected to 10% SDS-PAGE, proteins were then transferred to nitrocellulose membranes and blocked with 5% non-fat milk/TBST for 1 h at room temperature. Membranes were incubated with primary antibodies directed against PPAR-γ (1:1000), PGC-1α (1:1000), α-tubulin (1:10 000), Complex I (1:2000), Complex II (1:2000), Complex III (1:2000) and Complex V (1:2000) in 5% milk/TBST at 4° C. overnight. After washing membranes with TBST three times, membranes were incubated with horseradish peroxidase-conjugated secondary antibody for 1 h at room temperature. Western blots were developed using ECL (Roche Manheim, Germany) and quantified by scanning densitometry.

Row | SMILES | mitochondrial biogenesis in skeletal muscle [1] | PGC-1α protein expression (maximum), vs. control [2] [%] | mitochondrial electron transport complex I protein, vs. control ([3]; 0.1 μM) [%] | mitochondrial electron transport complex I protein, vs. control ([3]; 1.0 μM) [%] | mitochondrial electron transport complex I protein, vs. control ([3]; 10.0 μM) [%]
1 | O=C1O[C@H]([C@@H](O)CO)C(O)=C1O [Vitamin C] | decreases mitochondrial biogenesis | – | – | – | –
2 | OCCc1ccc(O)c(O)c1 [hydroxytyrosol, 3,4-dihydroxyphenylethanol] | – | 205±52 | 131±16 | 163±31 | 138±21
